Values joined by “and” are separate entries in the source; they are usually repeats but may differ in a detail not shown here. Equal values may be shown once. Inconclusive results and toxic doses are left out.
Test system: BDF1 mice, P388 leukemia ip, median survival T/C
Test: NCI In Vivo Anticancer Drug Screen. Data for tumor model P388 Leukemia (intraperitoneal) in B6D2F1 (BDF1) mice
Settings: endpoint: median survival time, higher = longer survival
How it was run: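 T/C = treated-group survival ÷ vehicle-control survival; tumour transplanted into mice before dosing.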

[1] = dose: 100.0 mg/kg/injection, schedule: Q04DX003 (ip), vehicle: saline with Tween-80
[2] = dose: 200.0 mg/kg/injection, schedule: Q04DX003 (ip), vehicle: saline with Tween-80
[3] = dose: 400.0 mg/kg/injection, schedule: Q04DX003 (ip), vehicle: saline with Tween-80
[4] = dose: 50.0 mg/kg/injection, schedule: Q01DX009 (ip), vehicle: saline with Tween-80
[5] = dose: 100.0 mg/kg/injection, schedule: Q01DX009 (ip), vehicle: saline with Tween-80
[6] = dose: 200.0 mg/kg/injection, schedule: Q01DX009 (ip), vehicle: saline with Tween-80
[7] = dose: 400.0 mg/kg/injection, schedule: Q04DX003 (ip), vehicle: saline
[8] = dose: 200.0 mg/kg/injection, schedule: Q04DX003 (ip), vehicle: Klucel (hydroxypropylcellulose) (HPC)
[9] = dose: 12.5 mg/kg/injection, schedule: Q01DX009 (ip), vehicle: saline with Tween-80
[10] = dose: 25.0 mg/kg/injection, schedule: Q01DX009 (ip), vehicle: saline with Tween-80

For `COC(=O)C12N=NN(c3ccccc3)C1(C(=O)OC)C1CCC2C1` (stereo unspecified), the T/C [1] was 100 % of control, the T/C [2] was 100 % of control and the T/C [3] was 91 % of control.

For `O=C(O)CCC(=O)c1ccc(C2CCCCCC2)cc1`, the T/C [4] was 110 % of control, the T/C [5] was 115 % of control and the T/C (dose: 100.0 mg/kg/injection, schedule: Q04DX003 (ip), vehicle: saline) was 95 % of control. The T/C [6] was 110 % of control and the T/C [7] was 100 % of control.

For `CCC1CN1CC1CO1` (stereo unspecified), the T/C (dose: 8.3 mg/kg/injection, schedule: Q04DX003 (ip), vehicle: Klucel (hydroxypropylcellulose) (HPC)) was 110 % of control, the T/C (dose: 12.0 mg/kg/injection, schedule: Q04DX003 (ip), vehicle: Klucel (hydroxypropylcellulose) (HPC)) was 120 % of control and the T/C (dose: 29.0 mg/kg/injection, schedule: Q04DX003 (ip), vehicle: Klucel (hydroxypropylcellulose) (HPC)) was 119 % of control. The T/C [8] was 204 % of control and the T/C (dose: 300.0 mg/kg/injection, schedule: Q04DX003 (ip), vehicle: Klucel (hydroxypropylcellulose) (HPC)) was 190 % of control and 218 % of control.

`CCN1c2ccccc2CC(CCN(C)Cc2ccccc2)(C(N)=O)c2ccccc21` (stereo unspecified) was tested, and the T/C [5] was 101 % of control.

`C[Si](C)(C)Nc1ncnc2c1ncn2[Si](C)(C)C` was tested, and the T/C [5] was 91 % of control.

`C=CCC1(CCC)C(=O)NC(=O)NC1=O` was tested, and the T/C (dose: 25.0 mg/kg/injection, schedule: Q04DX003 (ip), vehicle: saline with Tween-80) was 91 % of control, the T/C (dose: 50.0 mg/kg/injection, schedule: Q04DX003 (ip), vehicle: saline with Tween-80) was 91 % of control and the T/C [1] was 95 % of control.

`C[n+]1c(-c2ccc(Cl)cc2Cl)c2cc([N+](=O)[O-])ccc2c2ccccc21` was tested, and the T/C (dose: 3.12 mg/kg/injection, schedule: Q01DX009 (ip), vehicle: water) was 104 % of control, the T/C (dose: 6.25 mg/kg/injection, schedule: Q01DX009 (ip), vehicle: water) was 88 % of control and 104 % of control and 112 % of control and the T/C (dose: 12.5 mg/kg/injection, schedule: Q01DX009 (ip), vehicle: water) was 110 % of control and 119 % of control. For the same compound, the T/C (dose: 25.0 mg/kg/injection, schedule: Q01DX009 (ip), vehicle: water) was 104 % of control (2×) and 112 % of control and the T/C (dose: 50.0 mg/kg/injection, schedule: Q01DX009 (ip), vehicle: water) was 101 % of control.

In the case of `CC12CC[C]([Hg][I])(CC1)C2(C)C`, the T/C (dose: 3.13 mg/kg/injection, schedule: Q01DX009 (ip), vehicle: saline with Tween-80) is reported as 121 % of control, the T/C (dose: 6.25 mg/kg/injection, schedule: Q01DX009 (ip), vehicle: saline with Tween-80) is reported as 121 % of control and the T/C [9] is reported as 114 % of control.

`C1CC[N-]CC1.C1CC[N-]CC1.O=C(O)C(=O)O.[Pt+2]` was tested, and the T/C (dose: 25.0 mg/kg/injection, schedule: Q01DX009 (ip), vehicle: saline) was 120 % of control, the T/C (dose: 80.0 mg/kg/injection, schedule: Q01DX005 (ip), vehicle: Klucel (hydroxypropylcellulose) (HPC)) was 123 % of control and the T/C (dose: 100.0 mg/kg/injection, schedule: Q01DX009 (ip), vehicle: saline) was 120 % of control. For the same compound, the T/C (dose: 200.0 mg/kg/injection, schedule: Q01DX009 (ip), vehicle: saline) was 100 % of control and the T/C [7] was 118 % of control.

For `CSCSCC(CO)NS(=O)(=O)c1ccc(C)cc1` (stereo unspecified), the T/C [1] was 100 % of control, the T/C [2] was 100 % of control and the T/C [3] was 100 % of control.

With `Cc1cnn(O)c(=NCCCl)n1` the T/C (dose: 100.0 mg/kg/injection, schedule: Q04DX002 (ip), vehicle: saline with Tween-80) was 99 % of control, the T/C (dose: 200.0 mg/kg/injection, schedule: Q04DX002 (ip), vehicle: saline with Tween-80) was 99 % of control and the T/C (dose: 400.0 mg/kg/injection, schedule: Q04DX002 (ip), vehicle: saline with Tween-80) was 99 % of control.

In the case of `CC(C)CCCC(=O)CCCCCCC(=O)CCN(O)C(=O)C(N)CO` (stereo unspecified), the T/C (dose: 6.25 mg/kg/injection, schedule: Q01DX009 (ip), vehicle: Klucel (hydroxypropylcellulose) (HPC)) is reported as 98 % of control, the T/C (dose: 12.5 mg/kg/injection, schedule: Q01DX009 (ip), vehicle: Klucel (hydroxypropylcellulose) (HPC)) is reported as 94 % of control and the T/C (dose: 25.0 mg/kg/injection, schedule: Q01DX009 (ip), vehicle: Klucel (hydroxypropylcellulose) (HPC)) is reported as 94 % of control.

In the case of `C=C1C(=O)OC2CC(C)CCC/C(CO)=C/C(OC(=O)/C(=C/CO)CO)C12` (stereo unspecified), the T/C (dose: 3.5 mg/kg/injection, schedule: Q01DX009 (ip), vehicle: saline) is reported as 104 % of control and the T/C (dose: 7.0 mg/kg/injection, schedule: Q01DX009 (ip), vehicle: saline) is reported as 108 % of control.

`CNC(=O)OCc1c(COC(=O)NC)c(-c2ccc(Cl)cc2Cl)n2c1CCC2` was tested, and the T/C (dose: 100.0 mg/kg/injection, schedule: Q01DX009 (ip), vehicle: other) was 158 % of control.

`CCCCCCOc1ccc(OCCCC[N+]2(CC)CCCCC2)cc1` was tested, and the T/C (dose: 6.25 mg/kg/injection, schedule: Q01DX009 (ip), vehicle: saline) was 103 % of control and the T/C (dose: 12.5 mg/kg/injection, schedule: Q01DX009 (ip), vehicle: saline) was 110 % of control.

In the case of `CC1C(=O)OC2CC[N+]3([O-])CC=C(COC(=O)C(C)(O)C1(C)O)C23` (stereo unspecified), the T/C (dose: 100.0 mg/kg/injection, schedule: Q01DX010 (ip), vehicle: saline) is reported as 100 % of control and the T/C (dose: 400.0 mg/kg/injection, schedule: Q01DX010 (ip), vehicle: saline) is reported as 110 % of control.

`COc1cc([C@@H]2c3cc4c(cc3C(Br)[C@H]3COC(=O)[C@H]23)OCO4)cc(OC)c1OC` (stereo partly specified) was tested, and the T/C (dose: 1.0 mg/kg/injection, schedule: Q01DX010 (ip), vehicle: carboxymethylcellulose (CMC)) was 104 % of control, the T/C (dose: 2.1 mg/kg/injection, schedule: Q01DX010 (ip), vehicle: carboxymethylcellulose (CMC)) was 104 % of control and the T/C (dose: 4.2 mg/kg/injection, schedule: Q01DX010 (ip), vehicle: carboxymethylcellulose (CMC)) was 104 % of control. For the same compound, the T/C (dose: 7.5 mg/kg/injection, schedule: Q01DX009 (ip), vehicle: Klucel (hydroxypropylcellulose) (HPC)) was 161 % of control, the T/C (dose: 15.0 mg/kg/injection, schedule: Q01DX009 (ip), vehicle: Klucel (hydroxypropylcellulose) (HPC)) was 190 % of control and the T/C (dose: 30.0 mg/kg/injection, schedule: Q01DX009 (ip), vehicle: Klucel (hydroxypropylcellulose) (HPC)) was 95 % of control.

`C#CCN(C)CCO` was tested, and the T/C (dose: 100.0 mg/kg/injection, schedule: Q01DX001 (ip), vehicle: saline) was 105 % of control, the T/C (dose: 100.0 mg/kg/injection, schedule: Q04DX003 (ip), vehicle: alcohol) was 90 % of control and the T/C (dose: 200.0 mg/kg/injection, schedule: Q01DX001 (ip), vehicle: saline) was 95 % of control. For the same compound, the T/C (dose: 200.0 mg/kg/injection, schedule: Q04DX003 (ip), vehicle: alcohol) was 100 % of control, the T/C (dose: 400.0 mg/kg/injection, schedule: Q01DX001 (ip), vehicle: saline) was 100 % of control and the T/C (dose: 400.0 mg/kg/injection, schedule: Q04DX003 (ip), vehicle: alcohol) was 100 % of control.

With `CN(C)N=Nc1ccccc1Cl` the T/C [10] was 119 % of control and the T/C [5] was 157 % of control.

For `COc1cccc2c1C(=O)c1c(O)c3c(c(O)c1C2=O)CC(O)(C(=O)CO)CC3OC1CC(N)C(O)C(C)O1` (stereo unspecified) (tested in a mixture with another compound), the T/C (dose: 1.56 mg/kg/injection, schedule: Q01DX009 (ip), vehicle: other) was 118 % of control, the T/C (dose: 3.13 mg/kg/injection, schedule: Q01DX009 (ip), vehicle: other) was 106 % of control and the T/C (dose: 6.25 mg/kg/injection, schedule: Q01DX009 (ip), vehicle: other) was 93 % of control. The T/C (dose: 12.5 mg/kg/injection, schedule: Q01DX009 (ip), vehicle: other) was 108 % of control.

`O=C(S)c1ccccc1Br` was tested, and the T/C (dose: 50.0 mg/kg/injection, schedule: Q01DX005 (ip), vehicle: saline with Tween-80) was 99 % of control, the T/C (dose: 100.0 mg/kg/injection, schedule: Q01DX005 (ip), vehicle: saline with Tween-80) was 92 % of control and the T/C (dose: 200.0 mg/kg/injection, schedule: Q01DX005 (ip), vehicle: saline with Tween-80) was 100 % of control.

For `CCOC(=O)C(CNc1ccccc1)C(=O)OCC`, the T/C [10] was 95 % of control, the T/C [4] was 95 % of control and the T/C [5] was 95 % of control and 100 % of control. The T/C [6] was 100 % of control and the T/C (dose: 400.0 mg/kg/injection, schedule: Q01DX009 (ip), vehicle: saline with Tween-80) was 108 % of control and 109 % of control.

`COc1ccc(-c2cc(C)n(C)[n+]2C)cc1` was tested, and the T/C [9] was 103 % of control and the T/C [10] was 109 % of control.

For `Clc1ccccc1CSc1ncnc2nc[nH]c12`, the T/C (dose: 100.0 mg/kg/injection, schedule: Q01DX009 (ip), vehicle: Klucel (hydroxypropylcellulose) (HPC)) was 90 % of control, the T/C (dose: 100.0 mg/kg/injection, schedule: Q04DX003 (ip), vehicle: Klucel (hydroxypropylcellulose) (HPC)) was 95 % of control and the T/C (dose: 200.0 mg/kg/injection, schedule: Q01DX009 (ip), vehicle: Klucel (hydroxypropylcellulose) (HPC)) was 90 % of control. The T/C [8] was 100 % of control, the T/C (dose: 400.0 mg/kg/injection, schedule: Q01DX009 (ip), vehicle: Klucel (hydroxypropylcellulose) (HPC)) was 104 % of control and the T/C (dose: 400.0 mg/kg/injection, schedule: Q04DX003 (ip), vehicle: Klucel (hydroxypropylcellulose) (HPC)) was 100 % of control.

From PubChem BioAssay AID328 (DTP/NCI, 2004)
